Data set [1] in a line: pKa and ionization of test compounds. It is filed as physicochemical.
Data set [2] in a line: Movement across bilayer into vesicle interior containing cyclodextrin-esterified DPH (permeability coefficient). It is filed as physicochemical.
Description: Calculation of permeability coefficient (P). The rate constant (kn) for and maximum extent of (Δm) fluorescence change are determined using direct curve fitting procedures (nonlinear regression) assuming that test substance movement is a simple first order process. Deviation from first-order kinetics may be encountered when test compound movement into, out of, or across the membrane is carrier- or channel-mediated or the drug concentration approaches saturation. […] In general an increasing signal takes the form: Et=Eb+En(1−e^−k^n^t)+En+1(1−e^−k^n+1^t)+. . . and a decreasing signal takes the form: Et=Eb+Ene^−k^n^t+En+1e^−k^n+1^t+. . . , where Et is the fluorescence of the system at time t, En is the fluorescence of the system either at time zero (for a decreasing signal) or infinity (for an increasing signal), Eb is the system fluorescence insensitive to addition or removal of test compound, t is time, and kn is the rate constant describing the rate of fluorescence decrease or increase. If more than one first order process is detected, the second or third processes are characterized by En+1, and kn+1 and by En+2 and kn+2, respectively.
The half-life for test compound movement across the bilayer is computed from the rate constant as t1/2=0.693/kn.
The molar flux (v) of a test compound across the membrane is computed as […]
For data set [3] the following is noted: Stein 1985; cited from earlier work.

Consider `CCCCCCO` [hexanol], for which the ionization result in data set [1] (pH 4.0 and pH 7.0) is recorded as “not substantially ionized at either pH”.

With `CCO` [ethanol], the “rate constant kn for uptake into vesicle interior” value in data set [2] (10 μg lipid vesicles in 2 ml buffer, 10 μl ethanol) came to 62.9 per second. For the same compound, the “diffusion coefficient Dm” value in data set [2] (computed from P and K assuming λ=40×10^−8 cm) was 3.9×10^−7 cm^−2·s^−1. For the same compound, in data set [3], the “diffusion coefficient Dm, reported value” is listed as 1.5×10^−7 cm^−2s^−1.

For the compound `CCCCCC(=O)O` [hexanoic acid], the percentage ionized in data set [1] (pH 4.0) is on record as around 13%; in data set [1] (pH 7.0), above 99%.

Values taken from patent US7060292B2, “Lipid structures and uses thereof” (GESynthesis, Inc., priority 2001, dated 2006).
